Source: PubChem BioAssay AID248 (DTP/NCI, 2004)
“And” between values parts separate entries of the source, which are not always exact repeats. Equal entries are not always repeated. Toxic doses and inconclusive results are not listed. Rule as the data show it: active = T/C of 150% or more; inactive = T/C below 125%.

Test system: L1210 leukemia ip in BDF1 mice, survival T/C
Assay: NCI In Vivo Anticancer Drug Screen. Data for tumor model L1210 Leukemia (intraperitoneal) in B6D2F1 (BDF1) mice
Settings: endpoint: mean survival time, higher = longer survival
Method in brief: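 Survival endpoint. Drug-treated group vs vehicle group, expressed as T divided by C. Tumor passaged by transplantation.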

[1] = dose: 100.0 mg/kg/injection, schedule: Q01DX001 (ip), vehicle: Klucel (hydroxypropylcellulose) (HPC)
[2] = dose: 200.0 mg/kg/injection, schedule: Q01DX001 (ip), vehicle: Klucel (hydroxypropylcellulose) (HPC)
[3] = dose: 400.0 mg/kg/injection, schedule: Q01DX001 (ip), vehicle: Klucel (hydroxypropylcellulose) (HPC)
[4] = dose: 100.0 mg/kg/injection, schedule: Q01DX009 (ip), vehicle: saline with Tween-80
[5] = dose: 100.0 mg/kg/injection, schedule: Q04DX003 (ip), vehicle: saline with Tween-80
[6] = dose: 200.0 mg/kg/injection, schedule: Q01DX009 (ip), vehicle: saline with Tween-80
[7] = dose: 200.0 mg/kg/injection, schedule: Q04DX003 (ip), vehicle: saline with Tween-80
[8] = dose: 400.0 mg/kg/injection, schedule: Q01DX009 (ip), vehicle: saline with Tween-80
[9] = dose: 400.0 mg/kg/injection, schedule: Q04DX003 (ip), vehicle: saline with Tween-80
[10] = dose: 100.0 mg/kg/injection, schedule: Q04DX003 (ip), vehicle: Klucel (hydroxypropylcellulose) (HPC)
[11] = dose: 200.0 mg/kg/injection, schedule: Q04DX003 (ip), vehicle: Klucel (hydroxypropylcellulose) (HPC)
[12] = dose: 400.0 mg/kg/injection, schedule: Q04DX003 (ip), vehicle: Klucel (hydroxypropylcellulose) (HPC)
[13] = dose: 100.0 mg/kg/injection, schedule: Q01DX009 (ip), vehicle: Klucel (hydroxypropylcellulose) (HPC)
[14] = dose: 200.0 mg/kg/injection, schedule: Q01DX009 (ip), vehicle: Klucel (hydroxypropylcellulose) (HPC)
[15] = dose: 400.0 mg/kg/injection, schedule: Q01DX009 (ip), vehicle: Klucel (hydroxypropylcellulose) (HPC)

Measured: T/C

CCN(CCNC(=O)Nc1ccc(OC)cc1)c1ccccc1
inactive: dose: 100.0 mg/kg/injection, schedule: Q01DX009 (ip), vehicle: carboxymethylcellulose (CMC) 93 % of control and 100 % of control | dose: 100.0 mg/kg/injection, schedule: Q04DX002 (ip), vehicle: Klucel (hydroxypropylcellulose) (HPC) 103 % of control | dose: 100.0 mg/kg/injection, schedule: Q04DX002 (ip), vehicle: other 94 % of control and 98 % of control | dose: 100.0 mg/kg/injection, schedule: Q04DX003 (ip), vehicle: carboxymethylcellulose (CMC) 96 % of control | dose: 200.0 mg/kg/injection, schedule: Q01DX009 (ip), vehicle: carboxymethylcellulose (CMC) 93 % of control and 104 % of control | dose: 200.0 mg/kg/injection, schedule: Q04DX002 (ip), vehicle: Klucel (hydroxypropylcellulose) (HPC) 100 % of control | dose: 200.0 mg/kg/injection, schedule: Q04DX002 (ip), vehicle: other 91 % of control | dose: 200.0 mg/kg/injection, schedule: Q04DX003 (ip), vehicle: carboxymethylcellulose (CMC) 100 % of control | dose: 400.0 mg/kg/injection, schedule: Q01DX009 (ip), vehicle: carboxymethylcellulose (CMC) 96 % of control and 100 % of control | dose: 400.0 mg/kg/injection, schedule: Q04DX002 (ip), vehicle: Klucel (hydroxypropylcellulose) (HPC) 107 % of control | dose: 400.0 mg/kg/injection, schedule: Q04DX002 (ip), vehicle: other 102 % of control and 88 % of control | dose: 400.0 mg/kg/injection, schedule: Q04DX003 (ip), vehicle: carboxymethylcellulose (CMC) 96 % of control

O=C(O)c1c(F)ccc([N+](=O)[O-])c1F
inactive: dose: 100.0 mg/kg/injection, schedule: Q04DX002 (ip), vehicle: saline 108 % of control | dose: 200.0 mg/kg/injection, schedule: Q04DX002 (ip), vehicle: saline 103 % of control

NNP(=O)(Oc1ccccc1)Oc1ccccc1
inactive: dose: 50.0 mg/kg/injection, schedule: Q01DX009 (ip), vehicle: saline 108 % of control | dose: 75.0 mg/kg/injection, schedule: Q01DX001 (ip), vehicle: acetone 110 % of control | dose: 100.0 mg/kg/injection, schedule: Q01DX009 (ip), vehicle: saline 124 % of control | dose: 150.0 mg/kg/injection, schedule: Q01DX001 (ip), vehicle: acetone 103 % of control | dose: 300.0 mg/kg/injection, schedule: Q01DX001 (ip), vehicle: acetone 97 % of control

Nc1nc2ncc(CN(C(=O)C(F)(F)F)c3ccc(C(=O)NC(CCC(=O)O)C(=O)O)cc3)nc2c(=O)[nH]1 (stereo not given)
inactive: [1] 100 % of control | [2] 107 % of control | [3] 111 % of control

CCCCCCCCOc1nccc(N)n1
inactive: dose: 75.0 mg/kg/injection, schedule: Q01DX001 (ip), vehicle: saline with Tween-80 105 % of control

C1CCCCCC(N2CCCC2)CCCCC1
inactive: dose: 6.0 mg/kg/injection, schedule: Q01DX009 (ip), vehicle: saline 107 % of control | dose: 12.0 mg/kg/injection, schedule: Q01DX009 (ip), vehicle: saline 102 % of control | dose: 12.5 mg/kg/injection, schedule: Q04DX003 (ip), vehicle: saline 100 % of control | dose: 25.0 mg/kg/injection, schedule: Q01DX009 (ip), vehicle: saline 100 % of control | dose: 25.0 mg/kg/injection, schedule: Q04DX003 (ip), vehicle: saline 95 % of control

CC(C)(O)c1ccccc1
inactive: dose: 100.0 mg/kg/injection, schedule: Q01DX001 (ip), vehicle: saline 105 % of control | [4] 88 % of control | [5] 93 % of control | dose: 200.0 mg/kg/injection, schedule: Q01DX001 (ip), vehicle: saline 100 % of control | [6] 90 % of control | [7] 89 % of control | dose: 400.0 mg/kg/injection, schedule: Q01DX001 (ip), vehicle: saline 103 % of control | [8] 92 % of control | [9] 91 % of control

CC(=O)NNc1ccccc1Cl
inactive: [10] 96 % of control | [11] 117 % of control

O=C(COc1ccc(Cl)cc1Cl)NCCO
inactive: [10] 98 % of control | [11] 97 % of control | [12] 111 % of control

c1ccc(CCN2CCCC2)nc1
inactive: dose: 12.5 mg/kg/injection, schedule: Q04DX002 (ip), vehicle: saline with Tween-80 103 % of control | dose: 25.0 mg/kg/injection, schedule: Q04DX002 (ip), vehicle: saline with Tween-80 98 % of control

CC1(C)C(=O)C2(C(=O)O)CCC1C2 (stereo not given)
inactive: [4] 93 % of control | [5] 101 % of control | [6] 98 % of control | [7] 101 % of control | [8] 96 % of control | [9] 88 % of control

O=[As](O)(CC(O)c1ccccc1)c1ccccc1 (stereo not given)
inactive: dose: 6.25 mg/kg/injection, schedule: Q01DX001 (ip), vehicle: saline with Tween-80 97 % of control | dose: 12.5 mg/kg/injection, schedule: Q01DX001 (ip), vehicle: saline with Tween-80 103 % of control

COc1cc(C=O)cc(O)c1O
inactive: dose: 62.5 mg/kg/injection, schedule: Q01DX Z (ip), vehicle: saline 96 % of control | dose: 500.0 mg/kg/injection, schedule: Q01DX Z (ip), vehicle: saline 124 % of control

N#CC(CCCc1ccccc1)c1ccc(N)cc1 (stereo not given)
inactive: [1] 91 % of control | [2] 94 % of control | [3] 103 % of control

CC(C)c1cc2c(cc1O)C1(C)CCCC(C)(C(=O)O)C1CC2 (stereo not given)
inactive: dose: 50.0 mg/kg/injection, schedule: Q04DX003 (ip), vehicle: acetone 87 % of control | dose: 100.0 mg/kg/injection, schedule: Q01DX001 (ip), vehicle: acetone 97 % of control | dose: 100.0 mg/kg/injection, schedule: Q04DX003 (ip), vehicle: acetone 90 % of control | dose: 200.0 mg/kg/injection, schedule: Q01DX001 (ip), vehicle: acetone 92 % of control | dose: 200.0 mg/kg/injection, schedule: Q04DX003 (ip), vehicle: acetone 89 % of control

CNC(=S)N(C)N=O
inactive: dose: 100.0 mg/kg/injection, schedule: Q01DX Z (ip), vehicle: methylcellulose (MC) 97 % of control | dose: 200.0 mg/kg/injection, schedule: Q01DX Z (ip), vehicle: methylcellulose (MC) 120 % of control

Cc1cccc(NC(=O)c2ccccc2C(=O)O)c1C
inactive: [13] 98 % of control | [10] 98 % of control | [14] 93 % of control | [11] 95 % of control | [15] 96 % of control | [12] 93 % of control

C=CCCCCCCCCC(=O)NC[n+]1cccc(O)c1
inactive: [5] 87 % of control

N=C(N)CSS(=O)(=O)O
inactive: dose: 12.5 mg/kg/injection, schedule: Q01DX009 (ip), vehicle: Klucel (hydroxypropylcellulose) (HPC) 107 % of control | dose: 12.5 mg/kg/injection, schedule: Q04DX002 (ip), vehicle: Klucel (hydroxypropylcellulose) (HPC) 104 % of control | dose: 25.0 mg/kg/injection, schedule: Q01DX009 (ip), vehicle: Klucel (hydroxypropylcellulose) (HPC) 107 % of control | dose: 25.0 mg/kg/injection, schedule: Q04DX002 (ip), vehicle: Klucel (hydroxypropylcellulose) (HPC) 101 % of control | dose: 50.0 mg/kg/injection, schedule: Q04DX002 (ip), vehicle: Klucel (hydroxypropylcellulose) (HPC) 93 % of control

CCC(C)(C)c1cc(Sc2cc(C(C)(C)CC)cc(C(C)(C)CC)c2O)c(O)c(C(C)(C)CC)c1
inactive: dose: 100.0 mg/kg/injection, schedule: Q04DX003 (ip), vehicle: saline 109 % of control | dose: 200.0 mg/kg/injection, schedule: Q04DX003 (ip), vehicle: saline 100 % of control | dose: 400.0 mg/kg/injection, schedule: Q04DX003 (ip), vehicle: saline 88 % of control

COc1ccc(NC(=O)Oc2ccc(-c3ccccc3)cc2Cl)c(OC)c1
inactive: [13] 97 % of control | [14] 101 % of control | [15] 92 % of control

O=C1CCCNc2c(Br)cc(Br)cc21
inactive: dose: 100.0 mg/kg/injection, schedule: Q01DX001 (ip), vehicle: carboxymethylcellulose (CMC) 91 % of control | dose: 200.0 mg/kg/injection, schedule: Q01DX001 (ip), vehicle: carboxymethylcellulose (CMC) 94 % of control | dose: 400.0 mg/kg/injection, schedule: Q01DX001 (ip), vehicle: carboxymethylcellulose (CMC) 100 % of control
